Data taken from patent US8227463B2, “Amorphous body composed of heterocyclic compound, solid dispersion and pharmaceutical preparation each comprising the same, and process for production of the same” (Zenyaku Kogyo Kabushiki Kaisha, priority 2007, dated 2012).

Assays:
[1] = Blood concentration measurement of the test compound in rats after oral administration of the preparations; format: in vivo, SD male rats
Method: 7-week old SD male rats were purchased from Charles River Laboratories Japan (Inc.), preliminarily kept for a week and then used for experiments. Fasting began 16 hours before drug administration, and each of the preparations obtained from Examples 1, 4 and 5, when used, was mixed with distilled water to make a 100 mg/5 ml/kg test compound suspension, which was administered orally. Blood was sequentially collected from the tail vein using heparin-treated glass blood collection tubes from 15 min. to 24 or 30 hours after the administration of these preparations, centrifuged (3,000 rpm, 10 min., 4° C.) to obtain plasma, and the blood concentration of the test compound was evaluated (FIG. 3).

[2] = Changes in the state of the amorphous body on storage, analysed by powder X-ray diffraction; format: physicochemical; details: ordinary temperature
Method: When a crystal of the test compound obtained by common procedures was analyzed using the powder X-ray diffraction method, several characteristic peaks at diffraction angles 2θ=5 to 14, and especially at 2θ=7 to 10, were observed (FIG. 1). In contrast, when the preparations obtained in Examples 1 and 2 were analyzed using the powder X-ray diffraction (XRD) method, the peaks at diffraction angles characteristic to a crystalline form were not observed, and it was clear that the test compound was in an amorphized state in these preparations (FIG. 2).
In order to investigate the changes in the state of an amorphous body of the test compound, a solid dispersion produced by the spray drying method with a 1:2.5 test compound to HPMC compounding ratio was stored under certain conditions, and changes in the state of the amorphous body of the test compound were analyzed by powder X-ray diffraction similar to Example 3.
The present tablets were filled into a glass jar, sealed and evaluated for the stability of the amorphous body after 6 months of storage at 40° C. (75% RH).

| SMILES | Bioavailability in rats after grain refinement ([1]; grain refinement using a jet mill, a microfluidizer or an agitation mill) | Bioavailability / absorbability of amorphized test compound ([1]; compared to the crystallized form) | Stability of the amorphous state over time [2] |
| --- | --- | --- | --- |
| FC(F)c1nc2ccccc2n1-c1nc(N2CCOCC2)nc(N2CCOCC2)n1 [test compound, 2-(2-difluoromethylbenzimidazol-1-yl)-4,6-dimorpholino-1,3,5-triazine] | an improvement in the bioavailability was not observed | – | – |
| FC(F)c1nc2ccccc2n1-c1nc(N2CCOCC2)nc(N2CCOCC2)n1 [amorphous form of the test compound, 2-(2-difluoromethylbenzimidazol-1-yl)-4,6-dimorpholino-1,3,5-triazine] | – | extremely high absorbability | stable for a long period of time at ordinary temperature |
